US12600728B2, “Interleukin-17 inhibitors” (priority 2020, dated 2026)
Where two headings read alike, the source gives them in different places.

Key:
[1] = target: biotinylated human IL-17A / AF647-labeled human IL-17RA (Homo sapiens, UniProt Q16552); assay: Human IL-17A×IL-17RA TR-FRET assay; type: binding; conditions: biotinylated human IL-17A 5 nM, AF647-labeled human IL-17RA 30 nM
In short: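 Compounds tested in duplicate at each concentration; neutral controls contain all components with DMSO in place of compound.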

[2] = target: recombinant human IL-17AA (Homo sapiens, UniProt Q16552); assay: IL-6 release from NHDF cells, IL-17AA plus TNF-α stimulation; type: cell-based; conditions: IL-17AA 30 pM plus TNF-α 6 pM, 24 hours, IL-6 by ELISA
recombinant human IL-17AA, sequence (Q16552 24-155): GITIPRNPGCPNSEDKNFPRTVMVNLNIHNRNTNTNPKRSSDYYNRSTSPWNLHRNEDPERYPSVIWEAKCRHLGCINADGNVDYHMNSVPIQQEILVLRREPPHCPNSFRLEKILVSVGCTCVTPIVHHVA
In short: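 IL-17-specific IL-6 release from NHDF cells adhered overnight; compounds pre-incubated 30 min at room temperature with human IL-17AA plus TNF-α, then 24 h on cells at 37° C. Final DMSO 0.1% or plasma 20%; IL-6 by ELISA (450 nm). TNF-α-only IL-6 subtracted before IC50 fit.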

[3] = TR-FRET, read-out: IL17AA FRET/ IL17Rawt IC50
[4] = NHDF cells, read-out: IL17AA + TNF IC50 IL-6

biotinylated human IL-17A / AF647-labeled human IL-17RA, sequence (Q16552 24-155): as above

## CCc1nocc1C(=O)N[C@H](C(=O)Nc1ccc(-c2c(C(F)(F)F)cc[n+]([O-])c2C)cc1)C1CCCC1 [Example 5, (S)-3-(4-(2-cyclopentyl-2-(3-ethylisoxazole-4-carboxamido)acetamido)phenyl)-2-methyl-4-(trifluoromethyl)pyridine 1-oxide]
[1]; [3]
  IC50: 0.028 µM
[2]; [4]
  IC50: 0.009 µM
other
  melting point: 149 to 151 °C

## CCc1nocc1C(=O)N[C@H](C(=O)Nc1ccc(-c2c(Cl)cc[n+]([O-])c2C)cc1)[C@H]1CCCC(F)(F)C1 [Example 6, 4-chloro-3-(4-((S)-2-((S)-3,3-difluorocyclohexyl)-2-(3-ethylisoxazole-4-carboxamido)acetamido)phenyl)-2-methylpyridine 1-oxide]
[1]; [3]
  IC50: 0.048 µM
[2]; [4]
  IC50: 0.005 µM
other
  melting point: 247 to 250 °C

## Cc1c(-c2ccc(NC(=O)[C@@H](NC(=O)c3ccnn3C)C3CCCCC3)cc2F)c(Cl)cc[n+]1[O-] (single isomer, unassigned) [Example 2b]
[1]; [3]
  IC50: 0.017 µM
[2]; [4]
  IC50: 0.014 µM

## Cc1nocc1C(=O)N[C@H](C(=O)Nc1ccc(-c2c(C(F)(F)F)cc[n+]([O-])c2C)cc1)C1CCCC1 [Example 22, (S)-3-(4-(2-cyclopentyl-2-(3-methylisoxazole-4-carboxamido)acetamido)phenyl)-2-methyl-4-(trifluoromethyl)pyridine 1-oxide]
[1]; [3]
  IC50: 0.059 µM
[2]; [4]
  IC50: 0.066 µM

## Cc1c(-c2ccc(NC(=O)C(NC(=O)c3ccnn3C)C3CC4C(C3)C4(F)F)cc2)c(Cl)cc[n+]1[O-] (single isomer, unassigned) [Example 54a]
[1]; IL17AA FRET/ IL17Rawt IC50, TR-FRET
  IC50: 0.028 µM
[2]; IL17AA + TNF IC50 IL-6, NHDF cells
  IC50: 0.034 µM

## Cc1c(-c2ccc(NC(=O)[C@@H](NC(=O)c3ccnn3C(C)C)C3CCCCCC3)cc2)c(Cl)cc[n+]1[O-] [Example 48, (S)-4-chloro-3-(4-(2-cycloheptyl-2-(1-isopropyl-1H-pyrazole-5-carboxamido)acetamido)phenyl)-2-methylpyridine 1-oxide]
[1]; [3]
  IC50: 0.012 µM
[2]; [4]
  IC50: 0.001 µM

## Cc1c(-c2ccc(NC(=O)[C@@H](NC(=O)c3ccnn3C)C3CCCCC3)cc2F)c(Cl)cc[n+]1[O-] (single isomer, unassigned) [Example 2a]
[1]; [3]
  IC50: 0.049 µM
[2]; [4]
  IC50: 0.037 µM

## Cc1nocc1C(=O)NC(C(=O)Nc1ccc(-c2c(Cl)cc[n+]([O-])c2C)cc1)C1CC2CC2C1 (stereo not drawn) [Example 71, 3-(4-(2-(bicyclo[3.1.0]hexan-3-yl)-2-(3-methylisoxazole-4-carboxamido)acetamido)phenyl)-4-chloro-2-methylpyridine 1-oxide]
[1]; [3]
  IC50: 0.086 µM
[2]; [4]
  IC50: 0.035 µM
